Measured values from ChEMBL document CHEMBL1144510, “Synthesis of beta-ketophosphonate analogs of glutamyl and glutaminyl adenylate, and selective inhibition of the corresponding bacterial aminoacyl-tRNA synthetases” (Bioorg Med Chem, 2007).
pKi: −log10 of the molar value.

How the values were obtained:
[1] = Ratio of Ki for calf liver GluRS to Ki for Escherichia coli GluRS
[2] = Inhibition of cytoplasmic calf liver GluRS; parameters: species or system Bos taurus
[3] = Inhibition of Escherichia coli GluRS
[4] = Inhibition of Escherichia coli GlnRS

SMILES | Ratio Ki [1] | pKi [2] | pKi [3] | pKi [4]
Nc1ncnc2c1ncn2[C@@H]1OC(COS(=O)(=O)NC(=O)[C@@H](N)CCC(=O)O)[C@@H](O)[C@H]1O (some centres undefined) | 25 | 7.15 | 8.55 | –
Nc1ncnc2c1ncn2[C@@H]1O[C@H](COP(=O)(O)CC(=O)[C@@H](N)CCC(=O)O)[C@@H](O)[C@H]1O | 145 | 2.59 | 4.74 | 2.55
NC(=O)CC[C@H](N)C(=O)CP(=O)(O)OC[C@H]1O[C@@H](n2cnc3c(N)ncnc32)[C@H](O)[C@@H]1O | – | – | 2.54 | 3.19
